Data set [1] has as its system human MCF-7 breast cancer cells. In words: Cell viability (Alamar Blue) antiproliferative assay in MCF-7 cells. In kind it is cell-based. To be noted: Homo sapiens, MCF7, 72 h, human MCF-7 breast cancer cells; 72 h; mean ± SEM; read-out: Antiproliferative Activity IC50. Here is the method: The human breast carcinoma cell line MCF-7, was purchased from the European Collection of Animal Cell Cultures (ECACC) and was cultured in Eagle’s minimum essential medium with 10% fetal bovine serum, 2 mM L-glutamine and 100 μg/mL penicillin/streptomycin. The medium was supplemented with 1% non-essential amino acids. The human breast carcinoma cell line MDA-MB-231 was purchased from the European Collection of Animal Cell Cultures (ECACC). MDA-MB-231 cells were maintained in Dulbecco’s modified Eagle’s medium (DMEM) supplemeted with 10% (v/v) fetal bovine serum, 2 mM L-glutamine and 100 μg/mL penicillin/streptomycin (complete medium). All media contained 100 U/mL penicillin and 100 μg/mL streptomycin. Triple negative breast cancer Hs578T cells and its invasive variant Hs578Ts(i)8 were obtained as a kind gift from Dr. Susan McDonnell, School of Chemical and Bioprocess Engineering, University College Dublin and were cultured in Dulbecco’s Modified Eagle’s Media (DMEM) with GlutaMAX^TM-I, with the same supplement as for MDA-MB-231 cells in the absence of non-essential amino acids. HEK-293T normal epithelial embryonic kidney cells were cultured in Dulbecco’s Modified Eagle’s Medium (DMEM) with GlutaMAX^TM-I in the absence of non-essential amino acids. K562 and HL-60 cells were originally obtained from the European Collection of Cell Cultures (Salisbury, UK).The K562 cells were derived from a patient in the blast crisis stage of CML HL-60 cells were derive from a patient with acute myeloid leukaemia. Cells were cultured in RPMI-1640 Glutamax medium supplemented with 10% FCS media, and 100 μg/mL penicillin/streptomycin. Cells were maintained at 37 °C in 5% CO2 in a humidified incubator. All cells were sub-cultured three times/week (adherent cells by trypsinisation).
Cells were seeded at a density of 5 × 10^3 cells/well (MCF-7), in triplicate in 96-well plates. After 24 h, cells were then treated with either medium alone, vehicle [1% ethanol (v/v)] or with serial dilutions of CA-4 or β-lactam analogue. Cell viability for MCF-7 and MDA-MB-231 was analysed using the Alamar Blue assay (Invitrogen Corp, Thermo Fisher Scientific, 168 Third Avenue, Waltham, MA, USA) according to the manufacturer’s instructions. After 72 h, Alamar Blue [10% (v/v)] was added to each well and plates were incubated for 3–5 h at 37 °C in the dark. Fluorescence was read using a 96-well fluorimeter with excitation at 530 nm and emission at 590 nm. Results were expressed as percentage viability relative to vehicle control (100%). Dose response curves were plotted and IC50 values (concentration of drug resulting in 50% reduction in cell survival) were obtained using the commercial software package Prism (GraphPad Software, Inc., 2365 Northside, Suite 560, San Diego, CA, USA). Experiments were performed in triplicate on at least three separate occasions.

Usually IC50 stands for the concentration needed to halve the response being measured. As usually defined, the melting point is the temperature, or range, at which the solid turns liquid.

The molecule `C=CC1C(=O)N(c2cc(OC)c(OC)c(OC)c2)C1c1ccc(F)cc1` (stereo not shown) [Compound 7a, 4-(4-Fluorophenyl)-1-(3,4,5-trimethoxyphenyl)-3-vinylazetidin-2-one] yielded a melting point of 147 to 149 °C. In data set [1], the IC50 was 8.31 ± 1.4 µM. For `C=CC1C(=O)N(c2cc(OC)c(OC)c(OC)c2)C1c1ccc(Br)cc1` (stereo not shown) [Compound 7c, 4-(4-Bromophenyl)-1-(3,4,5-trimethoxyphenyl)-3-vinylazetidin-2-one], the IC50 in data set [1] is 0.445 ± 0.07 µM. With `C=CC1C(=O)N(c2cc(OC)c(OC)c(OC)c2)C1c1ccc(N(C)C)cc1` (stereo not shown) [Compound 7e, 4-(4-Dimethylaminophenyl)-1-(3,4,5-trimethoxyphenyl)-3-vinylazetidin-2-one], in data set [1], the IC50 came to 4.05 ± 0.45 µM. `C=CC1C(=O)N(c2cc(OC)c(OC)c(OC)c2)C1c1ccccc1` (stereo not shown) [Compound 7f, 4-Phenyl-1-(3,4,5-trimethoxyphenyl)-3-vinylazetidin-2-one] showed a melting point of 109 to 111 °C. In addition, the IC50 in data set [1] was 4.03 ± 0.42 µM.

`C=CC1C(=O)N(c2cc(OC)c(OC)c(OC)c2)C1c1ccc(C)cc1` (stereo not shown) [Compound 7g, 4-p-Tolyl-1-(3,4,5-trimethoxyphenyl)-3-vinylazetidin-2-one] showed a melting point of 106 to 107 °C. Further, the IC50 in data set [1] was 0.355 ± 0.03 µM. For `C=CC1C(=O)N(c2cc(OC)c(OC)c(OC)c2)C1c1ccc(OCCCC)cc1` (stereo not shown) [Compound 7j, 4-(4-Butoxyphenyl)-1-(3,4,5-trimethoxyphenyl)-3-vinylazetidin-2-one], in that order: 100 to 102 °C and 14 ± 1.81 µM. In the case of `C=CC1C(=O)N(c2cc(OC)c(OC)c(OC)c2)C1c1ccc(Oc2ccccc2)cc1` (stereo not shown) [Compound 7k, 4-(4-Phenoxyphenyl)-1-(3,4,5-trimethoxyphenyl)-3-vinylazetidin-2-one], the melting point fell in the range of 128 to 130 °C. In addition, the IC50 in data set [1] stood at 57 ± 3.72 µM. `C=CC1C(=O)N(c2cc(OC)c(OC)c(OC)c2)C1c1ccc(OCc2ccccc2)cc1` (stereo not shown) [Compound 7l, 4-(4-Benzyloxyphenyl)-1-(3,4,5-trimethoxyphenyl)-3-vinylazetidin-2-one]: the melting point was 148 to 149 °C. Further, the IC50 in data set [1] amounted to 8.02 ± 0.63 µM. `C=CC1C(=O)N(c2cc(OC)c(OC)c(OC)c2)C1c1cccc2ccccc12` (stereo not shown) [Compound 7m, 4-Naphthalen-1-yl-1-(3,4,5-trimethoxyphenyl)-3-vinylazetidin-2-one]: the melting point is 121 to 122 °C. Further, the IC50 in data set [1] came out at 1.74 ± 0.17 µM. `C=CC1C(=O)N(c2cc(OC)c(OC)c(OC)c2)C1c1ccc(OC)c([N+](=O)[O-])c1` (stereo not shown) [Compound 7p, 4-(4-Methoxy-3-nitrophenyl)-1-(3,4,5-trimethoxyphenyl)-3-vinylazetidin-2-one]: the IC50 in data set [1] came to 0.618 ± 0.1 µM.

Regarding `C=CC1C(=O)N(c2ccc(F)cc2)C1c1cc(OC)c(OC)c(OC)c1` (stereo not shown) [Compound 8a, 4-(3,4,5-Trimethoxyphenyl)-1-(4-fluorophenyl)-3-vinylazetidin-2-one], the IC50 in data set [1] was 1.07 ± 0.14 µM. Molecule `C=CC1C(=O)N(c2ccc(Cl)cc2)C1c1cc(OC)c(OC)c(OC)c1` (stereo not shown) [Compound 8b, 4-(3,4,5-Trimethoxyphenyl)-1-(4-chlorophenyl)-3-vinylazetidin-2-one] displayed a melting point of 131 to 133 °C. The IC50 in data set [1] amounted to 29.2 ± 1.14 µM. In the case of `C=CC1C(=O)N(c2ccc(Br)cc2)C1c1cc(OC)c(OC)c(OC)c1` (stereo not shown) [Compound 8c, 4-(3,4,5-Trimethoxyphenyl)-1-(4-bromophenyl)-3-vinylazetidin-2-one], the melting point was in the range of 120 to 122 °C. Besides, in data set [1], the IC50 was 10.4 ± 0.87 µM. On to `C=CC1C(=O)N(c2ccc([N+](=O)[O-])cc2)C1c1cc(OC)c(OC)c(OC)c1` (stereo not shown) [Compound 8d, 4-(3,4,5-Trimethoxyphenyl)-1-(4-nitrophenyl)-3-vinylazetidin-2-one], for which the IC50 in data set [1] came out at 59.1 ± 4.16 µM.

Consider `C=CC1C(=O)N(c2ccc(C(C)(C)C)cc2)C1c1cc(OC)c(OC)c(OC)c1` (stereo not shown) [Compound 8e, 4-(3,4,5-Trimethoxyphenyl)-1-(4-tert-butylphenyl)-3-vinylazetidin-2-one], for which the melting point was 172 to 174 °C. In data set [1], the IC50 is 68.8 ± 3.63 µM. `C=CC1C(=O)N(c2ccccc2)C1c1cc(OC)c(OC)c(OC)c1` (stereo not shown) [Compound 8f, 4-(3,4,5-Trimethoxyphenyl)-1-phenyl-3-vinylazetidin-2-one] showed a melting point of 150 to 151 °C. Further, in data set [1], the IC50 was found to be 50.5 ± 4.25 µM. Regarding `C=CC1C(=O)N(c2ccc(C)cc2)C1c1cc(OC)c(OC)c(OC)c1` (stereo not shown) [Compound 8g, 4-(3,4,5-Trimethoxyphenyl)-1-p-tolyl-3-vinylazetidin-2-one], in data set [1], the 50% inhibitory concentration (IC50) amounted to 43.1 ± 2.16 µM. As for `C=CC1C(=O)N(c2ccc(CC)cc2)C1c1cc(OC)c(OC)c(OC)c1` (stereo not shown) [Compound 8h, 4-(3,4,5-Trimethoxyphenyl)-1-(4-ethylphenyl)-3-vinylazetidin-2-one], the melting point is 110 to 112 °C. In addition, the IC50 in data set [1] was 36.4 ± 2.13 µM. As for `C=CC1C(=O)N(c2ccc(OC)cc2)C1c1cc(OC)c(OC)c(OC)c1` (stereo not shown) [Compound 8i, 4-(3,4,5-Trimethoxyphenyl)-1-(4-methoxyphenyl)-3-vinylazetidin-2-one], the IC50 in data set [1] turned out to be 65.1 ± 5.55 µM. Molecule `C=CC1C(=O)N(c2ccc(NC(C)=O)cc2)C1c1cc(OC)c(OC)c(OC)c1` (stereo not shown) [Compound 8j, N-(4-(2-(3,4,5-Trimethoxyphenyl)-4-oxo-3-vinylazetidin-1-yl)phenyl)acetamide] returned a melting point of 223 to 224 °C. In data set [1], the IC50 worked out at 4.02 ± 0.64 µM.

In turn, `C=CC1C(=O)N(c2ccc(SC)cc2)C1c1cc(OC)c(OC)c(OC)c1` (stereo not shown) [Compound 8k, 1-(4-(Methylthio)phenyl)-4-(3,4,5-trimethoxyphenyl)-3-vinylazetidin-2-one] showed a melting point of 104 to 106 °C. In data set [1], the IC50 is more than 50 µM. For `COc1ccc(C2CC(=O)N2c2cc(OC)c(OC)c(OC)c2)cc1O` (stereo not shown) [Compound 9c, 4-(3-Hydroxy-4-methoxyphenyl)-1-(3,4,5-trimethoxyphenyl)-azetidin-2-one], in that order: 78 to 80 °C and 0.017 µM. `COc1ccc(C2C(C(C)O)C(=O)N2c2cc(OC)c(OC)c(OC)c2)cc1O` (stereo not shown) [Compound 10a, 3-(1-Hydroxyethyl)-4-(3-hydroxy-4-methoxyphenyl)-1-(3,4,5-trimethoxyphenyl) azetidin-2-one]: the IC50 in data set [1] was found to be 0.065 ± 0.015 µM. For `C/C=C/C(O)C1C(=O)N(c2cc(OC)c(OC)c(OC)c2)C1c1ccc(OC)cc1` (stereo not shown) [Compound 10b, 3-((E)-1-Hydroxybut-2-enyl)-1-(3,4,5-trimethoxyphenyl)-4-(4-methoxyphenyl) azetidin-2-one], the melting point lay within 143 to 144 °C. Moreover, in data set [1], the IC50 amounted to 0.292 ± 0.05 µM. In the case of `COc1ccc(C2C(C(O)/C=C/c3ccccc3)C(=O)N2c2cc(OC)c(OC)c(OC)c2)cc1` (stereo not shown) [Compound 10e, 3-((E)-1-Hydroxy-3-phenylallyl)-1-(3,4,5-trimethoxyphenyl)-4-(4-methoxyphenyl) azetidin-2-one], the IC50 in data set [1] was 0.537 ± 0.08 µM. `C=CC(O)C1C(=O)N(c2cc(OC)c(OC)c(OC)c2)C1c1ccc(OC)c(O)c1` (stereo not shown) [Compound 10g, 4-(3-Hydroxy-4-methoxyphenyl)-3-(1-hydroxyallyl)-1-(3,4,5-trimethoxyphenyl) azetidin-2-one]: in data set [1], the IC50 was determined as 0.288 ± 0.076 µM. Take `C=CC(C)(O)C1C(=O)N(c2cc(OC)c(OC)c(OC)c2)C1c1ccc(OC)c(O)c1` (stereo not shown) [Compound 10h, 4-(3-Hydroxy-4-methoxy-phenyl)-3-(1-hydroxy-1-methylallyl)-1-(3,4,5-trimethoxy-phenyl)-azetidin-2-one]: the IC50 in data set [1] amounted to 0.467 ± 0.000253 µM. As for `COc1ccc(C2C(C(C)=O)C(=O)N2c2cc(OC)c(OC)c(OC)c2)cc1O` (stereo not shown) [Compound 11, 3-Acetyl-4-(3-hydroxy-4-methoxyphenyl)-1-(3,4,5-trimethoxyphenyl)azetidin-2-one], the IC50 in data set [1] is 0.414 ± 0.132 µM. The same measure, in the same setting: with `COc1ccc(C2C(C(O)CO)C(=O)N2c2cc(OC)c(OC)c(OC)c2)cc1O` (stereo not shown) [Compound 13, 3-(1,2-Dihydroxyethyl)-4-(3-hydroxy-4-methoxyphenyl)-1-(3,4,5-trimethoxyphenyl) azetidin-2-one] the figure was 0.069 ± 0.029 µM.

Regarding `C=CC1C(=O)N(c2cc(OC)c(OC)c(OC)c2)C1c1ccc(OC)c(NC(=O)C(C)N)c1` (stereo not shown) [Compound 15, 2-Amino-N-(2-methoxy-5-(1-(3,4,5-trimethoxyphenyl)-4-oxo-3-vinylazetidin-2-yl)phenyl)propanamide], the IC50 in data set [1] came to 3.25 ± 0.27 µM.

(Values after PMC6630832, “3-Vinylazetidin-2-Ones: Synthesis, Antiproliferative and Tubulin Destabilizing Activity in MCF-7 and MDA-MB-231 Breast Cancer Cells” (Pharmaceuticals, 2019).)
